Experimental data published in ChEMBL document CHEMBL1128005, “Piperidine-ether based hNK1 antagonists 1: Determination of the relative and absolute stereochemical requirements” (Bioorg Med Chem Lett, 1994).

Target: Substance-P receptor (Homo sapiens, UniProt P25103)
Assay: Compound was tested for the displacement of […] Substance P from hNK1 receptor in CHO cells
Assay type: cell-based

Chain of Substance-P receptor (P25103 whole entry): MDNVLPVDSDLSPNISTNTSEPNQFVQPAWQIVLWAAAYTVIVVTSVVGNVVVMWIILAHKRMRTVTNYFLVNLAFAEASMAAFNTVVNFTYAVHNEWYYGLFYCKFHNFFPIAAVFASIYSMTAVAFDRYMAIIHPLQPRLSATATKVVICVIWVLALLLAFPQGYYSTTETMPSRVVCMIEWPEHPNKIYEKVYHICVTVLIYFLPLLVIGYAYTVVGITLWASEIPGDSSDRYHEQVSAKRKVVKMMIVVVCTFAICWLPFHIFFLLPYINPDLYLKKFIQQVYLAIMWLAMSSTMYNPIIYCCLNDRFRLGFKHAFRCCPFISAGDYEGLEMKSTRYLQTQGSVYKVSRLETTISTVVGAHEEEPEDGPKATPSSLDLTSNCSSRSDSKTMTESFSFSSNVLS

SMILES	IC50 [nM]
FC(F)(F)c1cc(CO[C@@H]2CCCN[C@@H]2c2ccccc2)cc(C(F)(F)F)c1 (stereo in doubt)	350
FC(F)(F)c1cc(CO[C@H]2CCCN[C@@H]2c2ccccc2)cc(C(F)(F)F)c1	300
FC(F)(F)c1cc(CO[C@@H]2CCCN[C@@H]2c2ccccc2)cc(C(F)(F)F)c1 (stereo in doubt; (+/-)2)	1.4
FC(F)(F)c1cc(CO[C@H]2CCN[C@H]2c2ccccc2)cc(C(F)(F)F)c1 (racemic)	7
